Measurements: BindingDB's records for patent US11866405 (Astrazeneca, 2024)

Each compound was assayed against T1, Interleukin-1 receptor-associated kinase 4 (Homo sapiens, UniProt Q9NWZ3) (assay: Potency of IRAK4 Inhibitor Compounds in IRAK4 Enzyme Assay).
T1 sequence (Q9NWZ3 whole entry): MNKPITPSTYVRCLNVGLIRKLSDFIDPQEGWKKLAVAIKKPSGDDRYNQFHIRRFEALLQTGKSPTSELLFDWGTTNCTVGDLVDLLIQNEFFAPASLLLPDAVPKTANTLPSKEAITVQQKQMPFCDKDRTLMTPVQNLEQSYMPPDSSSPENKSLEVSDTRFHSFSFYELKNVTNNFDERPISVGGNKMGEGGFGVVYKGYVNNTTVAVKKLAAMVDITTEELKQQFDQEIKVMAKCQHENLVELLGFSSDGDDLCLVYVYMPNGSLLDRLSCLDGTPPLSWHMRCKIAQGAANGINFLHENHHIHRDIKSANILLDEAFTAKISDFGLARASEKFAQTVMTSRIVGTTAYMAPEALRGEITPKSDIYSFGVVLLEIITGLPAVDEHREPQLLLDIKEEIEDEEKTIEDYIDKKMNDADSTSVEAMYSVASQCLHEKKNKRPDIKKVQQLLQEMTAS
Description: The inhibitory activity of compounds against IRAK4 were determined in an enzymatic assay using mass spectrometry readout. Ten point half-log compound concentration response curves, with a top concentration of 1 μM or 10 μM, were generated from 10 mM stocks of compound solubilized in DMSO using an Echo 655 (Labcyte Inc) and added to 384 well assay plates (Greiner #781280). To the assay plates, 10 μL of human recombinant IRAK4 protein (Life Technologies #PV4002) diluted to a final concentration of 0.2 nM in assay buffer (50 mM Tris-HCl pH 7.4, 10 mM MgCl, 5 mM glutathione, 0.01% BSA, 3 mM ATP) was added. The enzyme was incubated with the compounds at room temperature for 15 minutes before a peptide substrate ([…], Innovagen custom synthesis, 10 mM in DMSO) was added to each well to a final concentration of 10 μM using an Echo 655 (Labcyte Inc). After two hours at room temperature, the reaction was stopped with 90 μL of 0.4% formic acid (Merck #33015). The unphosphorylated and phosphorylated peptide were measured by LC-MS/MS on a Waters TQ-S mass spectrometer. Peaks were integrated using the TargetLynx software and the ratios between phosphorylated and unphosphorylated peptides were calculated.

IC50 [nM]	Compound
0.6	C[C@@]1(O)CCC[C@H](n2cc3cc(C(=O)Nc4cnn5cccnc45)c(OC4CC4)cc3n2)C1 (relative stereo) [US11866405, Example 54]
0.6	COc1cc2nn([C@H]3CCC[C@H](O)[C@@H]3C)cc2cc1C(=O)Nc1cnc2cccnn12 (relative stereo) [US11866405, Example 106]
0.8	COc1cc2nn([C@H]3CC[C@H](N(C)C(=O)[C@@H]4CC[C@H](O)C4)CC3)cc2cc1C(=O)Nc1cnn2cccnc12 (relative stereo) [US11866405, Example 115]
0.7	COc1cc2nn([C@@H]3CC[C@]4(CCC(=O)N4C)C[C@H]3C)cc2cc1C(=O)Nc1cnc2cccnn12 (relative stereo; form 2) [US11866405, Example 122]
6.3	COc1cc2nn([C@H]3CC[C@H](O)C[C@@H]3C)cc2cc1C(=O)Nc1cnn2cccnc12 [US11866405, Example 40]
1.4	C[C@H]1C[C@@H](O)CC[C@@H]1n1cc2cc(C(=O)Nc3cnn4cccnc34)c(OC3CC3)cc2n1 [US11866405, Example 45]
0.3	COc1cc2nn([C@H]3CC[C@H](N(C)C(=O)[C@H](C)O)CC3)cc2cc1C(=O)Nc1cnc2cccnn12 [US11866405, Example 94]
